Source: patent publication US20230139445A1, “BACTERIAL CELLS WITH IMPROVED TOLERANCE TO DIACIDS” (priority 2016, published 2023)
Like-named read-outs stand apart in the source and are kept apart here.

Experiments:
[1] = tested on: Escherichia coli K-12 MG1655 and evolved isolates; format: cell-based; settings: 45 g/L itaconic acid
How it was run: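 Wild-type MG1655 and evolved isolates, precultured overnight in M9 + 1% glucose at 37 °C, were diluted into M9 + 1% glucose. Growth at 37 °C, 225 rpm, scanned every 15 min; pixel values calibrated to OD600. Diacids tested as sodium salts or neutralized to pH 7.0.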

[2] = tested on: Escherichia coli K-12 MG1655; experiment: Growth of K-12 MG1655 in varying concentrations of fumaric, itaconic, malic and succinic acid, Growth Profiler; format: cell-based
How it was run: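 Escherichia coli K-12 MG1655 cultures were grown in M9 medium with 1% glucose and challenged with the dicarboxylic acids, supplied as neutral sodium salts or as free acids neutralized to pH 7.0 with sodium hydroxide. Plates were shaken at 225 rpm and 37° C. in a Growth Profiler, scanned every 15 minutes, and green pixel values were converted to OD600 by calibration.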

`C=C(CC(=O)O)C(=O)O` [itaconic acid] was tested, and the “growth rate μ (mean)” value ([1]; strain ADIP1-1) was 0.466 h⁻¹, the “lag time tlag (mean)” value ([1]; strain ADIP1-1) was 8.3 h and the “growth rate μ (mean)” value ([1]; strain ADIP1-9) was 0.434 h⁻¹. The “lag time tlag (mean)” value ([1]; strain ADIP1-9) was 8.7 h, the “growth rate μ (mean)” value ([1]; strain ADIP2-5) was 0.440 h⁻¹ and the “lag time tlag (mean)” value ([1]; strain ADIP2-5) was 8.3 h. The “growth rate μ (mean)” value ([1]; strain ADIP2-6) was 0.470 h⁻¹, the “lag time tlag (mean)” value ([1]; strain ADIP2-6) was 8.2 h and the “growth rate μ (mean)” value ([1]; strain ADIP2-10) was 0.438 h⁻¹. For the same molecule, the “lag time tlag (mean)” value ([1]; strain ADIP2-10) was 8.3 h, the “growth rate μ (mean)” value ([1]; strain ADIP3-2) was 0.459 h⁻¹ and the “lag time tlag (mean)” value ([1]; strain ADIP3-2) was 7.9 h. For the same molecule, the “growth rate μ (mean)” value ([1]; strain ADIP3-4) was 0.451 h⁻¹, the “lag time tlag (mean)” value ([1]; strain ADIP3-4) was 8.4 h and the “growth rate μ (mean)” value ([1]; strain ADIP3-8) was 0.433 h⁻¹. The “lag time tlag (mean)” value ([1]; strain ADIP3-8) was 8.5 h, the “growth rate μ (mean)” value ([1]; strain ADIP4-1) was 0.339 h⁻¹ and the “lag time tlag (mean)” value ([1]; strain ADIP4-1) was 11.2 h. The “growth rate μ (mean)” value ([1]; strain ADIP4-8) was 0.326 h⁻¹, the “lag time tlag (mean)” value ([1]; strain ADIP4-8) was 10.4 h and the “growth rate μ (mean)” value ([1]; strain ADIP5-2) was 0.354 h⁻¹. For the same molecule, the “lag time tlag (mean)” value ([1]; strain ADIP5-2) was 9.4 h, the “growth rate μ (mean)” value ([1]; strain ADIP5-6) was 0.527 h⁻¹ and the “lag time tlag (mean)” value ([1]; strain ADIP5-6) was 7.2 h. For the same molecule, the “growth rate μ (mean)” value ([1]; strain ADIP6-3) was 0.327 h⁻¹, the “lag time tlag (mean)” value ([1]; strain ADIP6-3) was 9.9 h and the “growth rate μ (mean)” value ([1]; strain ADIP6-9) was 0.337 h⁻¹. The “lag time tlag (mean)” value ([1]; strain ADIP6-9) was 10.3 h, the “growth rate μ (mean)” value ([1]; strain ADIP6-10) was 0.343 h⁻¹ and the “lag time tlag (mean)” value ([1]; strain ADIP6-10) was 9.1 h. The “growth rate μ (mean)” value ([1]; strain ADIP7-2) was 0.342 h⁻¹, the “lag time tlag (mean)” value ([1]; strain ADIP7-2) was 7.9 h and the “growth rate μ (mean)” value ([1]; strain ADIP7-5) was 0.402 h⁻¹. For the same molecule, the “lag time tlag (mean)” value ([1]; strain ADIP7-5) was 8.6 h, the “growth rate μ (mean)” value ([1]; strain ADIP8-3) was 0.308 h⁻¹ and the “lag time tlag (mean)” value ([1]; strain ADIP8-3) was 11.7 h. The “growth rate μ (mean)” value ([1]; strain ADIP8-7) was 0.235 h⁻¹, the “lag time tlag (mean)” value ([1]; strain ADIP8-7) was 12.5 h and the “growth rate μ (mean)” value ([1]; strain ADIP8-10) was 0.290 h⁻¹. The “lag time tlag (mean)” value ([1]; strain ADIP8-10) was 11.3 h, the “growth rate μ (mean)” value ([1]; strain GLUT1-3) was 0.454 h⁻¹ and the “lag time tlag (mean)” value ([1]; strain GLUT1-3) was 10.2 h. For the same molecule, the “growth rate μ (mean)” value ([1]; strain GLUT1-9) was 0.446 h⁻¹, the “lag time tlag (mean)” value ([1]; strain GLUT1-9) was 10.4 h and the “growth rate μ (mean)” value ([1]; strain GLUT1-10) was 0.446 h⁻¹. The “lag time tlag (mean)” value ([1]; strain GLUT1-10) was 18.1 h, the “growth rate μ (mean)” value ([1]; strain GLUT2-1) was 0.385 h⁻¹ and the “lag time tlag (mean)” value ([1]; strain GLUT2-1) was 10.8 h. The “growth rate μ (mean)” value ([1]; strain GLUT2-9) was 0.415 h⁻¹, the “lag time tlag (mean)” value ([1]; strain GLUT2-9) was 9.0 h and the “growth rate μ (mean)” value ([1]; strain GLUT2-10) was 0.494 h⁻¹. For the same molecule, the “lag time tlag (mean)” value ([1]; strain GLUT2-10) was 8.8 h, the “growth rate μ (mean)” value ([1]; strain GLUT3-5) was 0.310 h⁻¹ and the “lag time tlag (mean)” value ([1]; strain GLUT3-5) was 12.0 h. The “growth rate μ (mean)” value ([1]; strain GLUT3-7) was 0.326 h⁻¹, the “lag time tlag (mean)” value ([1]; strain GLUT3-7) was 11.7 h and the “growth rate μ (mean)” value ([1]; strain GLUT3-9) was 0.257 h⁻¹. The “lag time tlag (mean)” value ([1]; strain GLUT3-9) was 14.5 h, the “growth rate μ (mean)” value ([1]; strain GLUT4-1) was 0.414 h⁻¹ and the “lag time tlag (mean)” value ([1]; strain GLUT4-1) was 11.7 h. For the same molecule, the “growth rate μ (mean)” value ([1]; strain GLUT4-4) was 0.339 h⁻¹, the “lag time tlag (mean)” value ([1]; strain GLUT4-4) was 13.4 h and the “growth rate μ (mean)” value ([1]; strain GLUT4-10) was 0.328 h⁻¹. The “lag time tlag (mean)” value ([1]; strain GLUT4-10) was 13.5 h, the “growth rate μ (mean)” value ([1]; strain GLUT5-4) was 0.398 h⁻¹ and the “lag time tlag (mean)” value ([1]; strain GLUT5-4) was 15.2 h. The “growth rate μ (mean)” value ([1]; strain GLUT5-5) was 0.368 h⁻¹, the “lag time tlag (mean)” value ([1]; strain GLUT5-5) was 11.4 h and the “growth rate μ (mean)” value ([1]; strain GLUT5-9) was 0.438 h⁻¹. The “lag time tlag (mean)” value ([1]; strain GLUT5-9) was 22.5 h, the “growth rate μ (mean)” value ([1]; strain GLUT6-4) was 0.360 h⁻¹ and the “lag time tlag (mean)” value ([1]; strain GLUT6-4) was 11.3 h. For the same molecule, the “growth rate μ (mean)” value ([1]; strain GLUT6-5) was 0.420 h⁻¹, the “lag time tlag (mean)” value ([1]; strain GLUT6-5) was 10.6 h and the “growth rate μ (mean)” value ([1]; strain GLUT6-10) was 0.502 h⁻¹. For the same molecule, the “lag time tlag (mean)” value ([1]; strain GLUT6-10) was 10.5 h, the “growth rate μ (mean)” value ([1]; strain GLUT7-2) was 0.441 h⁻¹ and the “lag time tlag (mean)” value ([1]; strain GLUT7-2) was 10.6 h. For the same molecule, the “growth rate μ (mean)” value ([1]; strain GLUT7-6) was 0.293 h⁻¹, the “lag time tlag (mean)” value ([1]; strain GLUT7-6) was 13.7 h and the “growth rate μ (mean)” value ([1]; strain GLUT7-7) was 0.239 h⁻¹. For the same molecule, the “lag time tlag (mean)” value ([1]; strain GLUT7-7) was 8.5 h, the “growth rate μ (mean)” value ([1]; strain GLUT8-5) was 0.372 h⁻¹ and the “lag time tlag (mean)” value ([1]; strain GLUT8-5) was 17.3 h. For the same molecule, the “growth rate μ (mean)” value ([1]; strain GLUT8-6) was 0.236 h⁻¹, the “lag time tlag (mean)” value ([1]; strain GLUT8-6) was 10.3 h and the “growth rate μ (mean)” value ([1]; strain GLUT8-9) was 0.224 h⁻¹. For the same molecule, the “lag time tlag (mean)” value ([1]; strain GLUT8-9) was 12.0 h, the “growth rate μ (mean)” value ([1]; strain MG1655 (Table 26)) was 0.248 h⁻¹ and the “lag time tlag (mean)” value ([1]; strain MG1655 (Table 26)) was 13.4 h. The “growth rate μ (mean)” value ([1]; strain MG1655 (Table 27)) was 0.257 h⁻¹, the “lag time tlag (mean)” value ([1]; strain MG1655 (Table 27)) was 13.0 h and the “μ (mean)” value ([2]; growth rate of K-12 MG1655, 10 g/L diacid (sodium salt)) was 0.703 h^1. For the same molecule, the “μ (mean)” value ([2]; growth rate of K-12 MG1655, 20 g/L diacid (sodium salt)) was 0.603 h^1, the “μ (mean)” value ([2]; growth rate of K-12 MG1655, 30 g/L diacid (sodium salt)) was 0.520 h^1 and the “μ (mean)” value ([2]; growth rate of K-12 MG1655, 40 g/L diacid (sodium salt)) was 0.320 h^1. The “μ (mean)” value ([2]; growth rate of K-12 MG1655, 50 g/L diacid (sodium salt)) was 0.117 h^1, the “tlag (mean)” value ([2]; lag time of K-12 MG1655, 10 g/L diacid (sodium salt)) was 5.8 h and the “tlag (mean)” value ([2]; lag time of K-12 MG1655, 20 g/L diacid (sodium salt)) was 7.0 h. For the same molecule, the “tlag (mean)” value ([2]; lag time of K-12 MG1655, 30 g/L diacid (sodium salt)) was 9.4 h, the “tlag (mean)” value ([2]; lag time of K-12 MG1655, 40 g/L diacid (sodium salt)) was 14.1 h and the “tlag (mean)” value ([2]; lag time of K-12 MG1655, 50 g/L diacid (sodium salt)) was 29.9 h.
